What follows are compounds tested against T1, PD-1/PD-L1 (Homo sapiens, UniProt Q9NZQ7) (assay: PD1-PDL1 HTRF assay). Settings: PD-1/PD-L1 homogenous time-resolved fluorescence (HTRF) binding assay; Tag1-PDL1 5 nM, Tag2-PD1 50 nM.
T1 construct: purchased CisBio
Excerpt: The CisBio HTRF assay kit, purchased from CisBio only, was employed to determine the IC50 values of compounds. The PD1-PDL1 HTRF assay measures the interactions between the two proteins, PD1 and PDL1. The interaction is detected by using anti-Tag1 labeled with Europium (HTRF donor) which binds to PDL1 and anti-Tag2 labeled with XL665 (HTRF acceptor) which binds to PD1. When the two antibodies are in proximity, the excitation of the donor fluorophore results in FRET emission from the acceptor fluorophore. The presence of inhibitors for such an interaction result in reduction of HTRF signal.
The assay was conducted in 96-well white assay plates. All the reagents, including Tag1-PDL1, Tag2-PD1, Anti-Tag1-PDL1, Anti-Tag2-PD1 were thawed and diluted with PPI Europium Detection buffer to achieve the desired concentration as per the manufacturer's protocol. A 1000 μM stock solution of test inhibitors was prepared in DMSO. The stock solution was diluted in DMSO to prepare 8 concentrations (1000-0.001 μM). These stock solutions were further diluted in PPI Europium detection buffer to prepare 8 working stock solutions (100-0.0001 μM). To the 96-well plate, 2 μL of the test inhibitor working stock solutions were added followed by 4 μL of Tag1-PDL1 (5 nM) and 4 μL of Tag2-PD1 (50 nM). The plate was incubated at room temperature for 15 min. Subsequently, 10 μL of pre-mixed Anti-Tag1-PDL1 and Anti-Tag2-PD1 solution was added. The plate was sealed and incubated at room temperature for 1 h. The HTRF signal was read on Perkin Elmer Envision plate reader using excitation wavelength of 320 nm, emission wavelengths of 620 nm and 665 nm. Results were obtained by calculating the ratio of signal from acceptor at 665 nm to that of signal from donor at 620 nm multiplied by […]. The IC50 values were determined by the Hill equation using GraphPad Prism software.

T1 sequence (Q9NZQ7 19-238 limits assumed): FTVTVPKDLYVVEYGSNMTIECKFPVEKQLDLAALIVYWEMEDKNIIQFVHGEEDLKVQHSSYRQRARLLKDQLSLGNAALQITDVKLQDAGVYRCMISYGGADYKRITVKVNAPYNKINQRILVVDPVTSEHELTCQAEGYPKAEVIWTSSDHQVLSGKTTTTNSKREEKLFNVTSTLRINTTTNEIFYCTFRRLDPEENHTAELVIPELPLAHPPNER

Cc1c(-c2ccc3c(c2)OCCO3)cccc1-c1ccn2c(-c3ccc(CN4CC[C@@H]4C(=O)O)cc3)cnc2c1 [Example 29, (R)-1-(4-(7-(3-(2,3-dihydrobenzo[b][1,4]dioxin-6-yl)-2-methylphenyl)imidazo[1,2-a]pyridin-3-yl)benzyl)azetidine-2-carboxylic acid] and Cc1c(-c2ccc3c(c2)OCCO3)cccc1-c1ccn2c(-c3ccc(CN4CCC[C@H]4C(=O)O)cc3)cnc2c1 [Example 37, (4-(7-(3-(2,3-dihydrobenzo[b][1,4]dioxin-6-yl)-2-methylphenyl)imidazo[1,2-a]pyridin-3-yl)benzyl)proline] fall in the same range of IC50: 100 to 1000 nM for the first, 100 to 1000 nM for the second.

Cc1c(-c2ccc3c(c2)OCCO3)cccc1-c1ccn2c(-c3ccc(CNCC(O)CC(=O)O)cc3)cnc2c1 (stereo not drawn) [Example 30, 4-((4-(7-(3-(2,3-dihydrobenzo[b][1,4]dioxin-6-yl)-2-methylphenyl)imidazo[1,2-a]pyridin-3-yl)benzyl)amino)-3-hydroxybutanoic acid] and Cc1c(-c2ccc3c(c2)OCCO3)cccc1-c1ccn2c(-c3ccc(CNC[C@@H](O)CO)cc3)cnc2c1 [Example 31, (R)-3-((4-(7-(3-(2,3-dihydrobenzo[b][1,4]dioxin-6-yl)-2-methylphenyl)imidazo[1,2-a]pyridin-3-yl)benzyl)amino)propane-1,2-diol] fall in the same range of IC50: 100 to 1000 nM for the first, 100 to 1000 nM for the second.

Cc1c(-c2ccc3c(c2)OCCO3)cccc1-c1ccn2c(-c3ccc(CNC[C@H](O)CO)cc3)cnc2c1 [Example 32, (S)-3-((4-(7-(3-(2,3-dihydrobenzo[b][1,4]dioxin-6-yl)-2-methylphenyl)imidazo[1,2-a]pyridin-3-yl)benzyl)amino)propane-1,2-diol] and Cc1c(-c2ccc3c(c2)OCCO3)cccc1-c1ccn2c(-c3ccc(C(=O)NCC(=O)O)cc3)cnc2c1 [Example 41, (4-(7-(3-(2,3-dihydrobenzo[b][1,4]dioxin-6-yl)-2-methylphenyl)imidazo[1,2-a]pyridin-3-yl)benzoyl)glycine] fall in the same range of IC50: 100 to 1000 nM for the first, 100 to 1000 nM for the second.

Cc1c(-c2ccc3c(c2)OCCO3)cccc1-c1ccn2c(-c3ccc(CN4CCCCC4C(=O)O)cc3)cnc2c1 (stereo not drawn) [Example 36, 1-(4-(7-(3-(2,3-dihydrobenzo[b][1,4]dioxin-6-yl)-2-methylphenyl)imidazo[1,2-a]pyridin-3-yl)benzyl)piperidine-2-carboxylic acid] and Cc1c(-c2ccc3c(c2)OCCO3)cccc1-c1ccn2c(-c3ccc(CN4C[C@@H](C(=O)O)C[C@H]4O)cc3)cnc2c1 [Example 38, (3S,5R)-1-(4-(7-(3-(2,3-dihydrobenzo[b][1,4]dioxin-6-yl)-2-methylphenyl)imidazo[1,2-a]pyridin-3-yl)benzyl)-5-hydroxypyrrolidine-3-carboxylic acid] fall in the same range of IC50: 100 to 1000 nM for the first, 100 to 1000 nM for the second.

COc1cc(-c2cnc3cc(-c4cccc(-c5ccc6c(c5)OCCO6)c4C)ccn23)cc(OC)c1CN1CCC[C@H]1C(=O)O [Example 40, (4-(7-(3-(2,3-dihydrobenzo[b][1,4]dioxin-6-yl)-2-methylphenyl)imidazo[1,2-a]pyridin-3-yl)-2,6-dimethoxybenzyl)-L-proline] and Cc1c(-c2ccc3c(c2)OCCO3)cccc1-c1ccn2c(-c3ccc(C(=O)N4CCC[C@@H]4C(=O)O)cc3)cnc2c1 [Example 42, (4-(7-(3-(2,3-dihydrobenzo[b][1,4]dioxin-6-yl)-2-methylphenyl)imidazo[1,2-a]pyridin-3-yl)benzoyl)-D-proline] fall in the same range of IC50: 100 to 1000 nM for the first, 100 to 1000 nM for the second.

First: Cc1c(-c2ccc3c(c2)OCCO3)cccc1-c1ccn2c(-c3ccc(C(=O)N4CCC[C@H]4C(=O)O)cc3)cnc2c1 [Example 43, (4-(7-(3-(2,3-dihydrobenzo[b][1,4]dioxin-6-yl)-2-methylphenyl)imidazo[1,2-a]pyridin-3-yl)benzoyl)-L-proline]
Second: Cc1c(-c2ccc3c(c2)OCCO3)cccc1-c1ccn2c(-c3ccc(CN4CCC[C@@H]4C(=O)O)cc3)nnc2c1 [Example 56, (4-(7-(3-(2,3-dihydrobenzo[b][1,4]dioxin-6-yl)-2-methylphenyl)-[1,2,4]triazolo[4,3-a]pyridin-3-yl)benzyl)-D-proline]
The IC50 of the first is higher: 100 to 1000 nM for the first, 10 to 100 nM for the second.

Cc1c(-c2ccccc2)cccc1-c1ccn2c(-n3ccc(C(=O)NCCO)n3)cnc2c1 [Example 44, N-(2-hydroxyethyl)-1-(7-(2-methyl-[1,1′-biphenyl]-3-yl)imidazo[1,2-a]pyridin-3-yl)-1H-pyrazole-3-carboxamide] and Cc1c(-c2ccccc2)cccc1-c1ccn2c(-n3ccc(C(=O)NCCC(=O)O)n3)cnc2c1 [Example 47, N 3-(1-(7-(2-methyl-[1,1′-biphenyl]-3-yl)imidazo[1,2-a]pyridin-3-yl)-1H-pyrazole-3-carboxamido)propanoic acid] fall in the same range of IC50: 100 to 1000 nM for the first, 100 to 1000 nM for the second.

Cc1c(-c2ccccc2)cccc1-c1ccn2c(-n3ccc(C(=O)NCC(=O)O)n3)cnc2c1 [Example 45, (1-(7-(2-methyl-[1,1′-biphenyl]-3-yl)imidazo[1,2-a]pyridin-3-yl)-1H-pyrazole-3-carbonyl)glycine] and CC(=O)NCCNC(=O)c1ccn(-c2cnc3cc(-c4cccc(-c5ccccc5)c4C)ccn23)n1 [Example 46, N-(2-acetamidoethyl)-1-(7-(2-methyl-[1,1′-biphenyl]-3-yl)imidazo[1,2-a]pyridin-3-yl)-1H-pyrazole-3-carboxamide] fall in the same range of IC50: 100 to 1000 nM for the first, 100 to 1000 nM for the second.

Cc1c(-c2ccc3c(c2)OCCO3)cccc1-c1ccn2c(-n3ccc(C(=O)NCC(=O)O)n3)cnc2c1 [Example 48, (1-(7-(3-(2,3-dihydrobenzo[b][1,4]dioxin-6-yl)-2-methylphenyl)imidazo[1,2-a]pyridin-3-yl)-1H-pyrazole-3-carbonyl)glycine] and Cc1c(-c2ccc3c(c2)OCCO3)cccc1-c1ccn2c(-n3ccc(C(=O)NCC(=O)O)n3)nnc2c1 [Example 49, (1-(7-(3-(2,3-dihydrobenzo[b][1,4]dioxin-6-yl)-2-methylphenyl)-[1,2,4]triazolo[4,3-a]pyridin-3-yl)-1H-pyrazole-3-carbonyl)glycine] fall in the same range of IC50: 10 to 100 nM for the first, 10 to 100 nM for the second.

Cc1c(-c2ccccc2)cccc1-c1ccn2c(C#CCN3CCC[C@@H]3C(=O)O)cnc2c1 [Example 50, (3-(7-(2-methyl-[1,1′-biphenyl]-3-yl)imidazo[1,2-a]pyridin-3-yl)prop-2-yn-1-yl)-D-proline] and Cc1c(-c2ccccc2)cccc1-c1ccn2c(C#CCN3CCC[C@H]3C(=O)O)cnc2c1 [Example 51, (3-(7-(2-methyl-[1,1′-biphenyl]-3-yl)imidazo[1,2-a]pyridin-3-yl)prop-2-yn-1-yl)-L-proline] fall in the same range of IC50: 100 to 1000 nM for the first, 100 to 1000 nM for the second.

Cc1c(-c2ccccc2)cccc1-c1ccn2c(-c3ccc(CN4CCCCC4C(=O)O)cc3)nnc2c1 (stereo not drawn) [Example 52, 1-(4-(7-(2-methyl-[1,1′-biphenyl]-3-yl)-[1,2,4]triazolo[4,3-a]pyridin-3-yl)benzyl)piperidine-2-carboxylic acid] and Cc1c(-c2ccccc2)cccc1-c1ccn2c(-c3ccc(CN4CCC[C@H]4C(=O)O)cc3)nnc2c1 [Example 53, (4-(7-(2-methyl-[1,1′-biphenyl]-3-yl)-[1,2,4]triazolo [4,3-a]pyridin-3-yl)benzyl)proline] fall in the same range of IC50: 100 to 1000 nM for the first, 100 to 1000 nM for the second.

Cc1c(-c2ccccc2)cccc1-c1ccn2c(-c3ccc(CNCCO)cc3)nnc2c1 [Example 54, 2-((4-(7-(2-methyl-[1,1′-biphenyl]-3-yl)-[1,2,4]triazolo[4,3-a]pyridin-3-yl)benzyl)amino)ethan-1-ol] and Cc1c(-c2ccccc2)cccc1-c1ccn2c(-c3ccc(CNCC(O)CC(=O)O)cc3)nnc2c1 (stereo not drawn) [Example 55, 3-hydroxy-4-((4-(7-(2-methyl-[1,1′-biphenyl]-3-yl)-[1,2,4]triazolo[4,3-a]pyridin-3-yl)benzyl)amino)butanoic acid] fall in the same range of IC50: 100 to 1000 nM for the first, 100 to 1000 nM for the second.

First: Cc1c(-c2ccc3c(c2)OCCO3)cccc1-c1ccn2c(-c3ccc(CN4CCC[C@H]4C(=O)O)cc3)nnc2c1 [Example 57, (4-(7-(3-(2,3-dihydrobenzo[b][1,4]dioxin-6-yl)-2-methylphenyl)-[1,2,4]triazolo[4,3-a]pyridin-3-yl)benzyl)-L-proline]
Second: Cc1c(-c2ccc3c(c2)OCCO3)cccc1-c1ccn2c(-c3ccc(CN4C[C@H](O)C[C@H]4C(=O)O)cc3)nnc2c1 [Example 60, (25,4R)-1-(4-(7-(3-(2,3-dihydrobenzo[b][1,4]dioxin-6-yl)-2-methylphenyl)-[1,2,4]triazolo[4,3-a]pyridin-3-yl)benzyl)-4-hydroxypyrrolidine-2-carboxylic acid]
The IC50 of the first is lower: 10 to 100 nM for the first, 100 to 1000 nM for the second. The first is the more potent here.

With Cc1c(-c2ccccc2)cccc1-c1ccn2c(-c3ccc(CN4CCC[C@@H]4C(=O)O)cc3)nnc2c1 [Example 58, (4-(7-(2-methyl-[1,1′-biphenyl]-3-yl)-[1,2,4]triazolo[4,3-a]pyridin-3-yl)benzyl)-D-proline] the IC50 was 10 to 100 nM.
